In one data set the test system is L6. Put plainly: Cytotoxicity against rat L6 cells after 71.5 hrs by Presto Blue assay. In kind it is cell-based. As to conditions: L6, 71.5 h.
The next data set deals with A549. Put plainly: Cytotoxicity against human A549 cells after 48 hrs by Alamar Blue assay. In kind it is functional, cell-based. Particulars: A549, 48 h. (In general: Alamar Blue is a resazurin reagent that responds to reducing activity.)
Data set [1] concerns the target DNA topoisomerase 2-alpha (Homo sapiens) (UniProt P11388). Description: Inhibition of human topoisomerase-2 alpha assessed as Escherichia coli pBR322 DNA cleavage at 100 uM after 30 mins by agarose electrophoresis.
Data set [2] is described as follows: Selectivity ratio of IC50 for rat L6 cells to IC50 for human A549 cells. In kind it is ADME, cell-based. As to conditions: L6 cells and A549 cells, read-out: Ratio IC50.

Each structure is given as a SMILES string. Active and inactive are the calls of the source. No cut-off for these calls is given here.

DNA topoisomerase 2-alpha (Homo sapiens), sequence (P11388 whole entry): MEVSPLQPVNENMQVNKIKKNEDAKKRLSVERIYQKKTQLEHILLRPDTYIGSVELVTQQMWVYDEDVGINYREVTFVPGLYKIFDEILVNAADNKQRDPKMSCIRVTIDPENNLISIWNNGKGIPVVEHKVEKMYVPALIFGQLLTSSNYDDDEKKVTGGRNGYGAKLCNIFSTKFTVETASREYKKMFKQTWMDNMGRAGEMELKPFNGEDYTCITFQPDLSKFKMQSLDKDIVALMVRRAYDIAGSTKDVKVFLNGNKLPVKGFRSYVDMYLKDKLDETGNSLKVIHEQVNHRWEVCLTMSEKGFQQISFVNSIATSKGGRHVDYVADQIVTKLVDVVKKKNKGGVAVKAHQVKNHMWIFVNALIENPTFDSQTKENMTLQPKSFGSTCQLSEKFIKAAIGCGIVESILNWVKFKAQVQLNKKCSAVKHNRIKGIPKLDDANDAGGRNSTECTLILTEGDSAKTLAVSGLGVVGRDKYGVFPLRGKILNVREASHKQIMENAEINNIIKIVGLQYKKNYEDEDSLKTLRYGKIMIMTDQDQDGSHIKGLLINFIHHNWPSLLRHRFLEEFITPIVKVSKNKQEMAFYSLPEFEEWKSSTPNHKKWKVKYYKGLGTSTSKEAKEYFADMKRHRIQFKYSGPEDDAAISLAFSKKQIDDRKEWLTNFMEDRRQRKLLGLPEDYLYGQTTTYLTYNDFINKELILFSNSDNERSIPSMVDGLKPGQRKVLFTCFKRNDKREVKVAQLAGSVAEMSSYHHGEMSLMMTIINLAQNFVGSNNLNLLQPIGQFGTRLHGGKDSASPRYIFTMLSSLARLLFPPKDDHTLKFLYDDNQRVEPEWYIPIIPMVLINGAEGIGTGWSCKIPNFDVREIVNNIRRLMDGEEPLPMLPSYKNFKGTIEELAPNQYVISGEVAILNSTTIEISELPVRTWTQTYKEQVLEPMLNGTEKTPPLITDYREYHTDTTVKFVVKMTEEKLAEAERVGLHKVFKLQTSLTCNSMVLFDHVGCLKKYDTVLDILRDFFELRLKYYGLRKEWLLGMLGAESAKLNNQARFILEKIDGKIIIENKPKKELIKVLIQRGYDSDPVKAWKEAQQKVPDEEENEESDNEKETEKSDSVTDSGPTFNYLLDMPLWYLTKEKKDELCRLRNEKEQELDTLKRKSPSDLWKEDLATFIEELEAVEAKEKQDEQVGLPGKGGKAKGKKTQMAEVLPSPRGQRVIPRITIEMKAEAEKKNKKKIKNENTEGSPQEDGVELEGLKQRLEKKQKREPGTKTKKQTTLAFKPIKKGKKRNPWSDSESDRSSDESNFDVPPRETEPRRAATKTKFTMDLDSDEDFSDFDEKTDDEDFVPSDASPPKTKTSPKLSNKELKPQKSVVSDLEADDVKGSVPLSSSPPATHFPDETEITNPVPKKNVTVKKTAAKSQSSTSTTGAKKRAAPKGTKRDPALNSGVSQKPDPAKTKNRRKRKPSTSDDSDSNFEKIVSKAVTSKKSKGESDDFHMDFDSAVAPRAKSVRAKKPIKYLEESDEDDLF

With `COc1cc([C@@H]2c3cc4c(cc3[C@@H](OCc3ccccc3)[C@H]3COC(=O)[C@H]23)OCO4)cc(OC)c1O`, the IC50 (in general, the concentration that gives 50% inhibition) amounted to 4550 nM with L6 and 3860 nM with A549. Besides, the inhibition result in data set [1] is “Active”. Further, the selectivity ratio in data set [2] came out at 1.2.
Turning to `COc1cc([C@@H]2c3cc4c(cc3[C@@H](OCc3ccc(CO[C@@H]5c6cc7c(cc6[C@@H](c6cc(OC)c(O)c(OC)c6)[C@H]6C(=O)OC[C@@H]65)OCO7)cc3)[C@H]3COC(=O)[C@H]23)OCO4)cc(OC)c1O`, the IC50 in the data set with L6 is 600 nM; in the data set on A549 it was 360 nM. Besides, the inhibition result in data set [1] was “Active”. In addition, the selectivity ratio in data set [2] came out at 1.7.
In the case of `CCCCCCO[C@@H]1c2cc3c(cc2[C@@H](c2cc(OC)c(O)c(OC)c2)[C@H]2C(=O)OC[C@@H]21)OCO3`, the IC50 was found to be 4550 nM in the data set with L6 and 5970 nM in the data set with A549. The inhibition entry in data set [1] was “Active”. Further, the selectivity ratio in data set [2] is 0.76.
For `COc1cc([C@@H]2c3cc4c(cc3[C@@H](O[C@@H]3O[C@@H]5CO[C@@H](C)O[C@H]5[C@H](O)[C@H]3O)[C@H]3COC(=O)[C@H]23)OCO4)cc(OC)c1O` [ETOPOSIDE], the figures for the IC50 in the data set on L6 and in the data set with A549 were 19000 nM and 2870 nM, respectively. Besides, in data set [1], the inhibition result is “Active”. Moreover, the selectivity ratio in data set [2] was 6.7.
Consider `COc1cc([C@@H]2c3cc4c(cc3[C@@H](OCCCCCCO[C@@H]3c5cc6c(cc5[C@@H](c5cc(OC)c(O)c(OC)c5)[C@H]5C(=O)OC[C@@H]53)OCO6)[C@H]3COC(=O)[C@H]23)OCO4)cc(OC)c1O`, for which the IC50 in the data set on L6 is 300 nM; in the data set on A549, 120 nM. Besides, the inhibition entry in data set [1] is “Active”. Moreover, in data set [2], the selectivity ratio came to 2.5.
In the case of `CCCCO[C@@H]1c2cc3c(cc2[C@@H](c2cc(OC)c(O)c(OC)c2)[C@H]2C(=O)OC[C@@H]21)OCO3`, the values for the IC50 in the data set on L6 and with A549 were 4620 nM and 2870 nM, respectively. Also, the inhibition result in data set [1] is “Active”. Further, the selectivity ratio in data set [2] was 1.6.
In the case of `COc1cc([C@@H]2c3cc4c(cc3[C@@H](OCCCCO[C@@H]3c5cc6c(cc5[C@@H](c5cc(OC)c(O)c(OC)c5)[C@H]5C(=O)OC[C@@H]53)OCO6)[C@H]3COC(=O)[C@H]23)OCO4)cc(OC)c1O`, the IC50 with L6 turned out to be 300 nM; in the data set on A549, 70 nM. Also, the inhibition entry in data set [1] was “Active”. In data set [2], the selectivity ratio was 4.3.

For the origin of these results see ChEMBL document CHEMBL3352615, “Synthesis and evaluation of ether-linked demethylepipodophyllotoxin dimers” (Bioorg Med Chem Lett, 2014).
